Experimental data as given in publication PMC8388771, “Cationic Peptidomimetic Amphiphiles Having a N-Aryl- or N-Naphthyl-1,2,3-Triazole Core Structure Targeting Clostridioides (Clostridium) difficile: Synthesis, Antibacterial Evaluation, and an In Vivo C. difficile Infection Model” (Antibiotics, 2021).
≈ marks a conversion by molar mass, not a printed value. Like-named read-outs stand apart in the source and are kept apart here.

What was measured:
human erythrocytes = assay: Hemolysis assay, HC50 determination; type: cell-based
Experimental: Hemolysis assay (human erythrocytes)–HC50 determination. These were performed as described previously.

E. faecalis ATCC 29212 = assay: Primary MIC assay, E. faecalis ATCC 29212; type: cell-based, Enterococcus faecalis; conditions: Enterococcus faecalis
Experimental: (§1) The N-arytriazole and N-naphthyltriazole peptidomimetics were subjected to antimicrobial screening. […] Vancomycin, colistin, fluconazole, and tamoxifen were used as positive controls (see Table 1 for details).
(§2) Primary screening (Gram-positive bacteria). Primary MIC assays were performed as described by the Clinical and Laboratory Standards Institute for aerobic and anaerobic bacteria. MIC values for vancomycin were within acceptable QC ranges.

E. coli ATCC 25922 [1] = assay: Primary MIC assay, E. coli ATCC 25922; type: cell-based; conditions: for MIC: Escherichia coli
S. aureus ATCC 29213 = assay: Primary MIC assay, S. aureus ATCC 29213; type: cell-based; conditions: Staphylococcus aureus
Experimental: as §1, §2

P. aeruginosa ATCC 27853 = assay: CO-ADD MIC assay, P. aeruginosa ATCC 27853; type: cell-based; conditions: for MIC: Pseudomonas aeruginosa, ATCC27853, Table S1
Source text: as §1
(§3) Secondary screening (MRSA and Gram-negative bacteria) and cytotoxicity assay–performed by the Community for Open Antimicrobial Drug Discovery (CO-ADD). Samples were provided to CO-ADD [29] for antimicrobial screening by whole cell growth inhibition assays.
(§4) Bacterial Inhibition–MIC Assay. These were performed as described previously.

S. aureus NCTC 10442 = assay: Primary MIC assay, S. aureus NCTC 10442 (MRSA); type: cell-based; conditions: Staphylococcus aureus
Experimental: as §1, §2

[2] = Cytotoxicity (CC50) assay by CO-ADD; type: cell-based, human; conditions: human, HEK293 cells (ATCC CRL-1573); Table 1; cytotoxicity on HEK293 cells, tested at ≤32 µg/mL
Source text: as §1, §3
Cytotoxicity Assay. These were performed as described previously.

S. pneumoniae ATCC 49619 = assay: Primary MIC assay, S. pneumoniae ATCC 49619; type: cell-based, Streptococcus pneumoniae; conditions: Streptococcus pneumoniae
Experimental: as §1, §2

E. coli ATCC 25922 [3] = assay: CO-ADD MIC assay, E. coli ATCC 25922; type: cell-based; conditions: for MIC: Escherichia coli, ATCC25922, Table S1
Source text: as §1, §3, §4

C. difficile 132 (RT027) = assay: Primary MIC assay, C. difficile 132 (RT027); type: cell-based, Clostridioides difficile; conditions: Clostridioides difficile, read-out: MIC C. difficile 132 (RT027)
Experimental: as §1, §2

S. aureus ATCC 43300 = assay: CO-ADD MIC assay, S. aureus ATCC 43300 (MRSA); type: cell-based; conditions: Staphylococcus aureus, read-out: MIC S. aureus ATCC 43300
Source text: as §1, §3, §4

[4] = test system: Cryptococcus neoformans var. grubii ATCC 208821; assay: CO-ADD MIC assay, C. neoformans var. grubii ATCC 208821; type: cell-based; conditions: Cryptococcus neoformans, ATCC208821, Table S1
Source text: as §1, §3

C. albicans ATCC 90028 = assay: CO-ADD MIC assay, C. albicans ATCC 90028; type: cell-based; conditions: Candida albicans, ATCC90028, Table S1
Source text: as §1, §3

A. baumannii ATCC 19606 = assay: CO-ADD MIC assay, A. baumannii ATCC 19606; type: cell-based; conditions: for MIC: Acinetobacter baumannii, ATCC19606, Table S1
Source text: as §1, §3, §4

[5] = test system: K. pneumoniae ATCC 700603; assay: CO-ADD MIC assay, K. pneumoniae ATCC 700603; type: cell-based; conditions: for MIC: Klebsiella pneumoniae, ATCC700603, Table S1, multi-drug resistant
Source text: as §1, §3, §4

C. difficile ATCC 700057 = assay: Primary MIC assay, C. difficile ATCC 700057; type: cell-based, Clostridioides difficile; conditions: Clostridioides difficile
Experimental: as §1, §2

[6] = Table 1, lysis of human erythrocytes
[7] = Table S1, footnote says lysis of sheep erythrocytes
[8] = ATCC29212, Table 1, read-out: MIC E. faecalis ATCC 29212
[9] = ATCC25922, Table 1, read-out: MIC E. coli ATCC 25922
[10] = ATCC29213, Table 1, read-out: MIC S. aureus ATCC 29213
[11] = Table 1, MRSA, read-out: MIC S. aureus NCTC 10442
[12] = ATCC49619, Table 1, read-out: MIC S. pneumoniae ATCC 49619
[13] = ATCC700057, Table 1, read-out: MIC C. difficile ATCC 700057

Molecule | HC50 (human erythrocytes; [6]) [µg/mL] | HC50 (human erythrocytes; [7]) [µg/mL] | MIC (E. faecalis ATCC 29212; [8]) [µg/mL] | MIC (E. coli ATCC 25922 [1]; [9]) [µg/mL] | MIC (S. aureus ATCC 29213; [10]) [µg/mL] | MIC (P. aeruginosa ATCC 27853) [µg/mL] | MIC (S. aureus NCTC 10442; [11]) [µg/mL] | CC50 [2] [µg/mL] | MIC (S. pneumoniae ATCC 49619; [12]) [µg/mL] | MIC (E. coli ATCC 25922 [3]) [µg/mL] | MIC (C. difficile 132 (RT027); Table 1) [µg/mL] | MIC (S. aureus ATCC 43300; Table S1, MRSA, CO-ADD) [µg/mL] | MIC [4] [µg/mL] | MIC (C. albicans ATCC 90028) [µg/mL] | MIC (A. baumannii ATCC 19606) [µg/mL] | MIC [5] [µg/mL] | MIC (C. difficile ATCC 700057; [13]) [µg/mL] | also measured
CC(C)CCc1cn(-c2ccccc2OCC(=O)N[C@H](CCCNC(=N)N)Cn2cc(C3CCCCC3)nn2)nn1 [Compound 10] | >32 | > 32 | 32 (≈ 56.7 µM) | 128 (≈ 227 µM) | 32 (≈ 56.7 µM) | > 32 | 32 (≈ 56.7 µM) | > 32 | 16 (≈ 28.3 µM) | > 32 | 64 (≈ 113 µM) | 32 (≈ 56.7 µM) | 32 (≈ 56.7 µM) | > 32 | > 32 | > 32 | 32 (≈ 56.7 µM) | –
CC(C)CCc1cn(-c2ccccc2OCC(=O)N[C@H](CCCNC(=N)N)Cn2cc(C3CCCC3)nn2)nn1.Cl [Compound 11] | >32 | > 32 | 32 | 128 | 32 | > 32 | 32 | > 32 | 16 | > 32 | 64 | 32 | 32 | > 32 | > 32 | > 32 | 32 | –
CC(C)CCc1cn(-c2ccccc2OCC(=O)N[C@H](CCCNC(=N)N)Cn2cc(-c3ccc(F)cc3)nn2)nn1.Cl [Compound 12] | >32 | > 32 | 32 | 128 | 32 | > 32 | 32 | > 32 | 16 | > 32 | 64 | 32 | 32 | > 32 | > 32 | > 32 | 32 | –
CC(C)CCc1cn(-c2ccccc2OCC(=O)N[C@H](CCCNC(=N)N)Cn2cc(Cc3ccccc3)nn2)nn1.Cl [Compound 13] | >32 | > 32 | 32 | 128 | 32 | > 32 | 32 | > 32 | 16 | > 32 | 64 | 32 | 32 | > 32 | > 32 | > 32 | 32 | –
CC(C)CCc1cnnn1-c1ccccc1OCC(=O)N[C@H](CCCNC(=N)N)Cn1cc(C2CCCCC2)nn1 [Compound 14] | >32 | > 32 | 32 (≈ 56.7 µM) | > 128 | 32 (≈ 56.7 µM) | > 32 | 32 (≈ 56.7 µM) | > 32 | 32 (≈ 56.7 µM) | > 32 | 128 (≈ 227 µM) | 32 (≈ 56.7 µM) | 32 (≈ 56.7 µM) | > 32 | > 32 | > 32 | 128 (≈ 227 µM) | –
CC(C)CCc1cnnn1-c1ccccc1OCC(=O)N[C@H](CCCNC(=N)N)Cn1cc(CC2CCCCC2)nn1.Cl [Compound 15] | >32 | > 32 | 16 | 128 | 16 | > 32 | 16 | > 32 | 16 | > 32 | 64 | 32 | 32 | > 32 | > 32 | > 32 | 64 | –
CC(C)CCc1cnnn1-c1ccccc1OCC(=O)N[C@H](CCCNC(=N)N)Cn1cc(Cc2ccccc2)nn1.Cl [Compound 16] | >32 | > 32 | 32 | > 128 | 32 | > 32 | 32 | > 32 | 32 | > 32 | 32 | 32 | 32 | > 32 | > 32 | > 32 | 32 | –
CC(C)CCc1cn(-c2c(OCC(=O)N[C@H](CCCNC(=N)N)Cn3cc(CC4CCCCC4)nn3)ccc3ccccc23)nn1.Cl [Compound 22] | >32 | > 32 | 8 | 32 | 4 | > 32 | 4 | > 32 | 8 | 32 | 32 | 4 | 32 | 16 | > 32 | > 32 | 32 | –
CC(C)CCc1cnnn1-c1c(OCC(=O)N[C@H](CCCCN)C(=O)N[C@H](CCCNC(=N)N)Cn2cc(Cc3ccccc3)nn2)ccc2ccccc12.Cl.Cl [Compound 45] | >32 | > 32 | 64 | 128 | 16 | 32 | 16 | > 32 | 4 | 32 | 128 | 16 | – | > 32 | > 32 | > 32 | 128 | –
Cl.Cl.N=C(N)NCCC[C@H](Cn1cc(Cc2ccccc2)nn1)NC(=O)[C@@H](CCCCN)NC(=O)COc1ccccc1-c1cn(Cc2ccccc2)nn1 [Compound 46] | >32 | > 32 | 64 | 128 | 32 | > 32 | 32 | > 32 | 16 | > 32 | 128 | 16 | – | 32 | > 32 | > 32 | 128 | –
OC(Cn1cncn1)(Cn1cncn1)c1ccc(F)cc1F [flucona-zole, fluconazole, reference compound] | – | – | – | – | – | – | – | – | – | – | – | – | 0.25 (≈ 0.816 µM) | 0.125 (≈ 0.408 µM) | – | – | – | –
CC/C(=C(\c1ccccc1)c1ccc(OCCN(C)C)cc1)c1ccccc1 [tamoxifen, reference compound] | – | – | – | – | – | – | – | 13.1 (≈ 35.3 µM) | – | – | – | – | – | – | – | – | – | –
CN[C@H](CC(C)C)C(=O)N[C@H]1C(=O)N[C@@H](CC(N)=O)C(=O)N[C@H]2C(=O)N[C@H]3C(=O)N[C@H](C(=O)N[C@H](C(=O)O)c4cc(O)cc(O)c4-c4cc3ccc4O)[C@H](O)c3ccc(c(Cl)c3)Oc3cc2cc(c3O[C@@H]2O[C@H](CO)[C@@H](O)[C@H](O)[C@H]2O[C@H]2C[C@](C)(N)[C@H](O)[C@H](C)O2)Oc2ccc(cc2Cl)[C@H]1O [vanc, vancomycin, reference compound] | – | – | – | – | – | – | – | – | – | – | – | – | – | – | – | – | – | MIC (E. faecalis ATCC 29212; ATCC29212, read-out: MIC E. faecalis ATCC 29212): 4 µg/mL (≈ 2.76 µM); MIC (E. coli ATCC 25922 [1]; ATCC25922, read-out: MIC E. coli ATCC 25922): > 16 µg/mL; MIC (S. aureus ATCC 29213; ATCC29213, read-out: MIC S. aureus ATCC 29213): 1 µg/mL (≈ 0.69 µM); MIC (S. aureus NCTC 10442; MRSA / NCTC 10442 / NCTC 104422, read-out: MIC S. aureus NCTC 104422): 1 µg/mL (≈ 0.69 µM); MIC (S. aureus NCTC 10442; read-out: MIC S. aureus NCTC 10442): 1 µg/mL (≈ 0.69 µM); MIC (S. pneumoniae ATCC 49619; ATCC49619, read-out: MIC S. pneumoniae ATCC 49619): 1 µg/mL (≈ 0.69 µM); MIC (C. difficile 132 (RT027)): 0.5 µg/mL (≈ 0.345 µM); MIC (S. aureus ATCC 43300): 1 µg/mL (≈ 0.69 µM); MIC (C. difficile ATCC 700057; ATCC700057, read-out: MIC C. difficile ATCC 700057): 0.5 µg/mL (≈ 0.345 µM)
colistin [reference compound] | – | – | – | – | – | – | – | – | – | – | – | – | – | – | – | – | – | MIC E. coli ATCC 25922 (E. coli ATCC 25922 [1]; Table 1): 0.125 µg/mL; MIC P. aeruginosa ATCC 27853 (P. aeruginosa ATCC 27853; Table S1): 0.25 µg/mL; MIC E. coli ATCC 25922 (E. coli ATCC 25922 [3]; Table S1): 0.125 µg/mL; MIC A. baumannii ATCC 19606 (A. baumannii ATCC 19606; Table S1): 0.25 µg/mL; MIC K. pneumoniae ATCC 700603 ([5]; Table S1, multi-drug resistant): 0.25 µg/mL
